Several values for one entry are separate records, joined by “and”; a condition that tells them apart may be missing. Equal values may be shown once.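 A five-concentration, 48-hour dose response in 96-well plates underlies each endpoint, interpolated linearly between surrounding concentrations. The concentration for 50% growth inhibition is given as GI50. TGI is the concentration that stops growth completely.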
Columns and labels:
Experiment in all cases: NCI-60 cell line screen, 48 h
LXFL 529 NSCLC = tested on: LXFL 529 NSCLC
SNB-78 CNS = tested on: SNB-78 CNS
HCT-116 colon = tested on: HCT-116 colon
DMS 273 small cell lung = tested on: DMS 273 small cell lung
DLD-1 colon = tested on: DLD-1 colon
M19-MEL melanoma = tested on: M19-MEL melanoma
PC-3 prostate = tested on: PC-3 prostate
MCF7 breast = tested on: MCF7 breast
BT-549 breast = tested on: BT-549 breast
HS 578T breast = tested on: HS 578T breast

| Compound | TGI (LXFL 529 NSCLC) [µM] | TGI (SNB-78 CNS) | TGI (HCT-116 colon) | TGI (DMS 273 small cell lung) [µM] | TGI (DLD-1 colon) [µM] | TGI (M19-MEL melanoma) | GI50 (PC-3 prostate) [µM] | TGI (PC-3 prostate) | GI50 (MCF7 breast) | TGI (MCF7 breast) | GI50 (BT-549 breast) [µM] | TGI (BT-549 breast) | GI50 (HCT-116 colon) [µM] | GI50 (HS 578T breast) | TGI (HS 578T breast) |
| --- | --- | --- | --- | --- | --- | --- | --- | --- | --- | --- | --- | --- | --- | --- | --- |
| COc1ccc2c(CCNS(=O)(=O)c3ccccc3)c(C(C)=O)[nH]c2c1[N+](=O)[O-] | > 100 | > 100 µM | > 100 µM | > 100 | – | – | – | – | – | – | – | – | – | – | – |
| O=C(CN1C(=O)c2ccccc2C1=O)OC1C=CCCC1 (stereo not given) | > 100 | > 100 µM | > 100 µM | > 100 | > 100 | > 100 µM | – | – | – | – | – | – | – | – | – |
| c1ccc2c(c1)[Se]c1ccccc1[Se]2 | > 100 | > 100 µM | 72.4 µM | > 100 | > 100 | > 100 µM | – | – | – | – | – | – | – | – | – |
| CN1NC(c2ccccc2)=C(C#N)C(=O)CC1c1ccccc1Cl (stereo not given) | > 100 | > 100 µM | > 100 µM | > 100 | > 100 | – | – | – | – | – | – | – | – | – | – |
| CP(=O)(CCSc1ccccc1)c1ccccc1 (stereo not given) | > 100 | > 100 µM | > 100 µM | > 100 | > 100 | > 100 µM | – | – | – | – | – | – | – | – | – |
| O=c1c2cc(-c3ccccc3)sc2nc2sc(-c3ccccc3)nn12 | > 100 | > 100 µM | > 100 µM | > 100 | > 100 | > 100 µM | – | – | – | – | – | – | – | – | – |
| Cc1cc(Cl)ccc1N1C(=O)C(=O)C(c2nc3ccccc3s2)/C(=N\NC(=O)c2ccccc2O)C1=O (stereo not given) | > 100 | > 100 µM | > 100 µM | > 100 | > 100 | > 100 µM | – | – | – | – | – | – | – | – | – |
| O=S(O)CCCCSSCCCCS(=O)(O)=S | 61.2 | > 100 µM | > 100 µM | > 100 | > 100 | > 100 µM | – | – | – | – | – | – | – | – | – |
| CC[O+]=c1cccc2ssnc1-2 | > 100 | > 100 µM | > 100 µM | > 100 | > 100 | > 100 µM | – | – | – | – | – | – | – | – | – |
| Cc1ccc(S(=O)(=O)NC(C)C(=O)O)cc1 (stereo not given) | > 100 | – | – | > 100 | > 100 | > 100 µM | – | – | – | – | – | – | – | – | – |
| COC(=O)c1c(C(=O)OC)c(C(=O)OC)c(C(=O)OC)c1C(=O)OC | > 100 | – | – | > 100 | > 100 | – | – | – | – | – | – | – | – | – | – |
| CCC1N2CCCCC2[C@@H]2c3[nH]c4ccccc4c3CCN12 (stereo not given in full) | > 100 | > 100 µM | > 100 µM | > 100 | > 100 | > 100 µM | – | – | – | – | – | – | – | – | – |
| [O-]c1c(-c2ccccc2)[se]c(-c2ccccc2)[n+]1-c1ccccc1 | 27.8 | 14 µM | 11.4 µM | 37.1 | 4.48 | 21.3 µM | – | – | – | – | – | – | – | – | – |
| O=C(O/N=C1/CCC/C1=C\c1ccccc1)c1ccc(Cl)cc1 | > 100 | > 100 µM | > 100 µM | > 100 | > 31.6 | > 100 µM | – | – | – | – | – | – | – | – | – |
| N#CC(C(=N/NC(N)=S)/C(=N\NC(N)=S)C(C#N)c1ccccc1)c1ccccc1 (stereo not given) | > 10 | > 10 µM | > 10 µM | > 10 | > 10 | > 10 µM | – | – | – | – | – | – | – | – | – |
| C=CCCC12CCCC(=O)C1Sc1ccc3ccccc3c12 (stereo not given) | 33.2 | 60.8 µM | – | 23.6 | 71.5 | > 100 µM | – | – | – | – | – | – | – | – | – |
| CCN(CC)CCNc1ccc(CO)c2sc3ccccc3c(=O)c12 | 31.6 | 35.1 µM and 28.4 µM | – | – | – | 26.5 µM and 31.6 µM | 3.65 | 17.5 µM and 17.8 µM | 2.21 µM and 4.35 µM and 5.57 µM | 7.55 µM and 17.3 µM and 19.2 µM | 6.99 | 21.9 µM and 26.9 µM | 4.28 | 4.26 µM and 9.64 µM | 24.8 µM and 26.8 µM |
| COc1cc2c(cc1OCCN1C(=O)c3cccc4cccc(c34)C1=O)N=C[C@@H]1CCCN1C2=O | – | – | 14.5 µM and 45.4 µM | – | – | – | 15 | 13.6 µM and 28.2 µM | 13.6 µM | 18.2 µM and > 100 µM | – | 16.9 µM | 20.6 | 15.2 µM | 19.9 µM and 35.8 µM |
| CN1C(=O)NC2(O)c3ccccc3C(=O)C12O (stereo not given) | > 100 | > 100 µM | > 100 µM | – | > 100 | > 100 µM | – | – | – | – | – | – | – | – | – |
| CC(=O)c1ccc(NCn2nc(-c3ccccc3O)oc2=S)cc1 | – | – | > 100 µM | – | – | – | 46.4 | > 100 µM | > 100 µM | > 100 µM | 56.2 | > 100 µM | > 100 | > 100 µM | > 100 µM |
| COc1ccc2c3c([nH]c2c1[N+](=O)[O-])C(C)N(C(=O)/C=C/c1ccccc1)CC3 (stereo not given) | > 100 | > 100 µM | – | 7.77 | – | – | – | – | – | – | – | – | – | – | – |
| CC(=O)N1C(=O)C(=O)c2cc(Cl)ccc21 | > 100 | > 100 µM | – | > 100 | > 100 | > 100 µM | – | – | – | – | – | – | – | – | – |
| COC(=O)/C1=C/C2CC(/C=C(/c3ccccc3)C(=O)O1)C2 | – | – | 56.6 µM | 53 | > 100 | > 100 µM | – | – | – | – | – | – | – | – | – |

From PubChem BioAssay (NCI)
